Legend:
SAK = target: T1, SAK (Homo sapiens, UniProt O00444); assay: Radiometric protein kinase assay, SAK; type: biochemical; conditions: 1 μM ATP; read-out: Inhibitory activity (IC50:μM) SAK
T1 construct: host or cells: Sf9 insect cells (baculovirus)
T1 sequence (O00444 1-970): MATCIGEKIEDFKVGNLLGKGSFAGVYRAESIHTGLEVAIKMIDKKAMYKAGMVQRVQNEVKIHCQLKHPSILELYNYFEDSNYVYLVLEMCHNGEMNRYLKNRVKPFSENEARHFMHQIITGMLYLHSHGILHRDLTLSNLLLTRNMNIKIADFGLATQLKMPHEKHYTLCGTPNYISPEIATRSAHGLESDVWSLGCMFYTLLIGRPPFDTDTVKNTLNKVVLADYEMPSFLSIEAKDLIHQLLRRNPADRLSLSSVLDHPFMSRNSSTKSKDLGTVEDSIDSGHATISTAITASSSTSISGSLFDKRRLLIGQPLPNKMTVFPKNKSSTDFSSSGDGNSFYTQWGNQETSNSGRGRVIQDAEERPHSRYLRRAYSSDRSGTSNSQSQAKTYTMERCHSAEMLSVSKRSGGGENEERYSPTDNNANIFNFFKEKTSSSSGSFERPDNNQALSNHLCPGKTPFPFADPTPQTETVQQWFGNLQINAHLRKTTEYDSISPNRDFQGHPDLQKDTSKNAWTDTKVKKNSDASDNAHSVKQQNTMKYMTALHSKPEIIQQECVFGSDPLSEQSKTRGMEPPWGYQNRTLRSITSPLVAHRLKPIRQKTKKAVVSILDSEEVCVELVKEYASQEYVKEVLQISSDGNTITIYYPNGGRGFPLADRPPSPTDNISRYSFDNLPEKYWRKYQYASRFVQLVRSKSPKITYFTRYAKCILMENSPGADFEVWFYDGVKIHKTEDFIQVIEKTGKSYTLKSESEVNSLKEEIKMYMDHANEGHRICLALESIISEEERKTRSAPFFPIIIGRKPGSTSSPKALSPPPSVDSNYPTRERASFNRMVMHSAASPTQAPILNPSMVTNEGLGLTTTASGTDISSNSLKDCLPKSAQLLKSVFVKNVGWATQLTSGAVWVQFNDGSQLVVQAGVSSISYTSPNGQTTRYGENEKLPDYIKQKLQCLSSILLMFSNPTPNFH
From the text: (§1) All protein kinases were expressed in Sf9 insect cells as human recombinant GST-fusion proteins or His-tagged proteins by means of the baculovirus expression system. Kinases were purified by affinity chromatography using either GSH-agarose (Sigma) or Ni-NTH-agarose (Qiagen). The purity of each kinase was checked by SDS-PAGE/silver staining and the identity of each kinase was verified by western blot analysis with kinase specific antibodies or by mass spectroscopy.
(§2) A radiometric protein kinase assay (^33PanQinase® Activity Assay) was used for measuring the kinase activity of the 24 protein kinases. All kinase assays were performed in 96-well FlashPlates™ from Perkin Elmer (Boston, Mass., USA) in a 50 μl reaction volume. The reaction cocktail was pipetted in 4 steps in the following order: • 20 μl of assay buffer • 5 μl of ATP solution (in H2O) • 5 μl of test compound (in 10% DMSO) • 10 μl of substrate/10 […] of enzyme solution (premixed)
(§3) The assay for all enzymes contained 60 mM HEPES-NaOH, pH 7.5, 3 mM MgCl2, 3 mM MnCl2, 3 μM Na-orthovanadate, 1.2 mM DTT, 50 μg/ml PEG20000, 1 μM [γ-^33P]-ATP (approx. 5×10^05 cpm per well).
(§4) For the 24 kinase assays, the following amounts of enzyme and substrate were used per well:
(§5) The reaction cocktails were incubated at 30° C. for 80 minutes. The reaction was stopped with 50 μl of 2% (v/v) H3PO4, plates were aspirated and washed two times with 200 μl of 0.9% (w/v) NaCl or 200 μl H2O. Incorporation of ^33Pi was determined with a microplate scintillation counter (Microbeta Trilux, Wallac).
(§6) The median value of the counts in column 1 (n=8) of each assay plate was defined as “low control”. This value reflects unspecific binding of radioactivity to the plate in the absence of a protein kinase but in the presence of the substrate. The median value of the counts in column 7 of each assay plate (n=8) was taken as the “high control”, i.e. full activity in the absence of any inhibitor. The difference between high and low control was taken as 100% activity.
(§7) As part of the data evaluation the low control value from a particular plate was subtracted from the high control value as well as from all 80 “compound values” of the corresponding plate. The residual activity (in %) for each well of a particular plate was calculated by using the following formula: Res. Activity (%)=100×[(cpm of compound−low control)/(high control−low control)]
(§8) The residual activities for each concentration and the compound IC50 values were calculated using Quattro Workflow V2.1.0.0 (Quattro Research GmbH, Munich, Germany; www.quattro-research.com). The model used was “Sigmoidal response (variable slope)” with parameters “top” fixed at 100% and “bottom” at 0%.

FLT3 = target: T2, FLT3 (Homo sapiens, UniProt P36888); assay: Radiometric protein kinase assay, FLT3; type: biochemical; conditions: 1 μM ATP; read-out: Inhibitory activity (IC50:μM) FLT3
T2 construct: host or cells: Sf9 insect cells (baculovirus)
T2 sequence (P36888 27-993): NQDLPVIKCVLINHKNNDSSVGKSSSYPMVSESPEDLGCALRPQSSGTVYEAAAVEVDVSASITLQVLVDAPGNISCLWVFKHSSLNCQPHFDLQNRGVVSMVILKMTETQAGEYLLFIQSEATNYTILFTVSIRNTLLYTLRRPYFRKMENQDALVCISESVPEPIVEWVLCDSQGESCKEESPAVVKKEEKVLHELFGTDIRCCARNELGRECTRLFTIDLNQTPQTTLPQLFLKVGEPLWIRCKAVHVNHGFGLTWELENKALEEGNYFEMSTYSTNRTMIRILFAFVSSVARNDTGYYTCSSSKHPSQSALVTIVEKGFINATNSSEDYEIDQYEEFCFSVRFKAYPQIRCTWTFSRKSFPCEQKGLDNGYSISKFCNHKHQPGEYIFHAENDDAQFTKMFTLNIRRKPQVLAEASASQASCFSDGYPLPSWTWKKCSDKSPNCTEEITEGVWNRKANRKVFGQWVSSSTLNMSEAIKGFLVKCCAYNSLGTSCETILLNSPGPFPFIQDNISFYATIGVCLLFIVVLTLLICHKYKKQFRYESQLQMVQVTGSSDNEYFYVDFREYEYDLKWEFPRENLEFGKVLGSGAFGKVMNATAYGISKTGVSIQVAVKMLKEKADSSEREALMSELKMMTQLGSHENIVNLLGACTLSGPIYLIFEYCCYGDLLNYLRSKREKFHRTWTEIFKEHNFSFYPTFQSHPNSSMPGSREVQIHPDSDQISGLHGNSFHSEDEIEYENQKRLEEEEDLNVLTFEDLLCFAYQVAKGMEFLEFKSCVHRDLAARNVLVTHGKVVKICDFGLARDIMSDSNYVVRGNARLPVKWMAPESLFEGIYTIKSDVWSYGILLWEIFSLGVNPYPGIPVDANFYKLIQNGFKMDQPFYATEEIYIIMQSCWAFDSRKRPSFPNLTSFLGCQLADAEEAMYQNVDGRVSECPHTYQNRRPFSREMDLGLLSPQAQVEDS
From the text: as §1, §2, §3, §4, §5, §6, §7, §8

| IC50 (SAK) | IC50 (FLT3) | SMILES |
| --- | --- | --- |
| 17 µM | 44 µM | O=C1/C=C/CCC2OC2C[C@@H](Cc2ccccc2)OC(=O)c2c(O)cc(O)cc2C1 (stereo partly drawn) [A-6] |
| 20 µM | – | O=C1/C=C/CCC2OC2C[C@H](c2ccccc2)OC(=O)c2c(O)cc(O)c(Cl)c2C1 (stereo partly drawn) [A-5] |
| 17 µM | 23 µM | COC1CC/C=C/C[C@H](c2ccccc2)OC(=O)c2c(O)cc(O)c(Cl)c2CC(=O)C1 (stereo partly drawn) [A-2] |
| 19 µM | 45 µM | CC(C)[C@@H]1CC2OC2CC/C=C/C(=O)Cc2c(Cl)c(O)cc(O)c2C(=O)O1 (stereo partly drawn) [A-4] |
| 25 µM | 23 µM | O=C1Cc2c(Cl)c(O)cc(O)c2C(=O)O[C@H](c2ccccc2)C/C=C/CCC(Cl)C1 (stereo partly drawn) [A-3] |
